For data set [1], the system named is Rattus norvegicus. Kind of data set: In vivo spleen distribution of total doxorubicin after 6 hr intravenous administration of 2.5 mg/kg of compound in rat bearing Walker 256 cells. The arrangement: dose 2.5 mg/kg, route intravenous. The format is ADME, organism-based.
Data set [2] concerns Rattus norvegicus. As to the kind of experiment: In vivo liver distribution of free doxorubicin after 6 hr intravenous administration of 2.5 mg/kg of compound in rat bearing Walker 256 cells. On the set-up: dose 2.5 mg/kg, route intravenous. The format is ADME, organism-based.
The subject of data set [3] is Rattus norvegicus. Kind of data set: In vivo tumor distribution of free doxorubicin after 6 h intravenous administration of 2.5 mg/kg of compound in rat bearing Walker 256 cells. It counts as ADME, organism-based. On the set-up: dose 2.5 mg/kg, route intravenous.
Data set [4] concerns Rattus norvegicus. Kind of data set: In vivo tumor distribution of total doxorubicin after 6 hr intravenous administration of 2.5 mg/kg of compound in rat bearing Walker 256 cells. It counts as ADME, organism-based. The arrangement: dose 2.5 mg/kg, route intravenous.
Data set [5] concerns Rattus norvegicus. As to the kind of experiment: In vivo heart distribution of free doxorubicin after 6 hr intravenous administration of 2.5 mg/kg of compound in rat bearing Walker 256 cells. The format is ADME, organism-based. On the set-up: dose 2.5 mg/kg, route intravenous.
The species entered for data set [6] is Rattus norvegicus. Kind of data set: Effective dose was measured in rats. It counts as functional.
Data set [7] relates to Rattus norvegicus. Kind of data set: In vivo plasma distribution of total doxorubicin after 6 hr intravenous administration of 2.5 mg/kg of compound in rat bearing Walker 256 cells. It counts as ADME, organism-based. On the set-up: dose 2.5 mg/kg, route intravenous.
Data set [8] concerns Rattus norvegicus. As to the kind of experiment: In vivo liver distribution of total doxorubicin after 6 h intravenous administration of 2.5 mg/kg of compound in rat bearing Walker 256 cells. The format is ADME, organism-based. On the set-up: dose 2.5 mg/kg, route intravenous.
The test system of data set [9] is Rattus norvegicus. As to the kind of experiment: In vivo plasma distribution of free doxorubicin after 6 h intravenous administration of 2.5 mg/kg of compound in rat bearing Walker 256 cells. It counts as ADME, organism-based. The arrangement: dose 2.5 mg/kg, route intravenous.

The record followed here is ChEMBL document CHEMBL1133073, “Structure-activity relationships of carboxymethylpullulan-peptide-doxorubicin conjugates--systematic modification of peptide spacers” (Bioorg Med Chem Lett, 2000).

As a reminder, the ED50 is the dose that gives a 50% effect, or the effect in half of the subjects.

Turning to `COc1cccc2c1C(=O)c1c(O)c3c(c(O)c1C2=O)C[C@@](O)(C(=O)CO)C[C@@H]3O[C@H]1C[C@H](N)[C@H](O)[C@H](C)O1` [DOXORUBICIN], the Dose/g tissue in the data set with Rattus norvegicus [1] came to 2.21%; with Rattus norvegicus [2] it was 0.56%; in the data set on Rattus norvegicus [3], 0.24%; in the data set with Rattus norvegicus [4], 0.35%; in the data set with Rattus norvegicus [5] it was 1.13%; in the data set with Rattus norvegicus [7], 0%. The Dose/g tissue was 0.54% with Rattus norvegicus [8] and 0% in the data set with Rattus norvegicus [9]. In the data set filed under Rattus norvegicus [6], this molecule registered an ED50 of 1.17 mg/kg.
